Reference: PMC11003683, “Pyrrole-based inhibitors of RND-type efflux pumps reverse antibiotic resistance and display anti-virulence potential” (PLOS Pathogens, 2024)
In brackets after ≈: the same amount, converted by molar mass. Like-named read-outs stand apart in the source and are kept apart here. Each block holds one molecule with its values, some of them ahead of it.

Assays:
[1] = tested on: T1, Pseudomonas aeruginosa ATCC BAA-2795; assay: microbe, parasite or virus in culture; set-up: MIC of antibiotic alone from antibiotic potentiation assay against XDR strain; settings: ATCC BAA-2782 / ATCC BAA-2795, read-out: MIC (μg/mL) / Klebsiella pneumoniae ATCC BAA-2782 / Pseudomonas aeruginosa ATCC BAA-2795
T1 construct: ATCC BAA-2795
Excerpt: (§1) We further tested the potentiation of Ar1, Ar5, Ar11, and Ar18 to RND efflux pump substrates (ciprofloxacin, levofloxacin, tetracycline, tigecycline, erythromycin, piperacillin, and chloramphenicol) against XDR E. coli ATCC BAA-2774 (expressing AcrAB-TolC), K. pneumoniae ATCC BAA-2782 (expressing AcrAB-TolC), and P. aeruginosa ATCC BAA-2795 (expressing MexAB-OprM). […] The fact that compounds potentiate a given antibiotic against efflux pump over-expressed strain but not deletion provides substantial evidence that the inhibition effect is RND efflux pump specific targeting AcrAB and MexAB efflux systems. The antibiotics, chemicals, and dyes were purchased from Sigma-Aldrich Chemical Co. (St. Louis, MO, United States) unless stated otherwise. The E. coli wild-type K-12 AG100 (argE3 thi-1 rpsLxylmtlΔ(gal-uvrB)supE44) and its derivatives, AcrB over-expressing AG100tet and AcrAB knockout AG100A (ΔacrAB::Tn903 Kan^r) were used in the study. AG100tet is derived from AG100 by gradual stepwise exposure to increased concentrations of tetracycline and was grown in the presence of 8 μg/mL tetracycline to maintain efflux pump over-expression. AG100A was grown in the presence of 100 μg/mL kanamycin to preserve the transposon. The P. aeruginosa ATCC BAA-2795 over-expressing MexAB-OprM (Chromachemie, India), and PAO750 (PAO1: ΔmexAB-oprM, ΔmexCD-oprJ, ΔmexEF-oprN, ΔmexXY) were also used in the study. The strains P. aeruginosa ATCC 27853, P. aeruginosa ATCC 15692 (PAO1), K. Pneumoniae ATCC BAA-2782, K. Pneumoniae ATCC 700603, and E. coli ATCC BAA-2774, were purchased from Himedia, India. All the strains were grown in BBL Cation-adjusted Mueller Hinton Broth (CA-MHB; BD, U.S.) at 37°C under standard conditions. Mueller Hinton Agar (MHA; Himedia, India) plates were used for bacterial viability counting.

[2] = tested on: T2, Escherichia coli ATCC BAA-2774; assay: microbe, parasite or virus in culture; set-up: MIC of antibiotic alone from antibiotic potentiation assay against XDR strain; settings: ATCC BAA-2774 / ATCC BAA-2782, read-out: MIC (μg/mL) / Klebsiella pneumoniae ATCC BAA-2782 / Escherichia coli ATCC BAA-2774
T2 construct: ATCC BAA-2774
Excerpt: as §1

[3] = tested on: T3, Klebsiella pneumoniae ATCC BAA-2782; assay: microbe, parasite or virus in culture; set-up: MIC of antibiotic alone from antibiotic potentiation assay against XDR strain; settings: ATCCBAA2782, read-out: MIC (μg/mL) / Klebsiella pneumoniae ATCC BAA-2782
T3 construct: ATCC BAA-2782
Excerpt: as §1

in vitro [4] = assay: in vitro; set-up: species or system H-PBMC; MTT viability assay, absorbance at 570 nm, cytotoxicity IC50; settings: human, pbmc; read-out: IC50
Description: (§2) The cytotoxicity assay was performed on Human Peripheral Blood Mononuclear cells (H-PBMC, Himedia, India) according to the manufacturer’s instructions. The H-PBMC (40,000 cells/well in 100 μL volume) suspension in RPMI-1640 media (containing 10% fetal bovine serum and 50 U/mL antibiotic-antimycotic solution) (Himedia^, India) was dispensed into 96-well polystyrene tissue culture-treated flat-bottom plates (Corning, U.S.). The plates were incubated for 48 h in a CO2 (5%) incubator at 37°C. After 48 h, the compounds (Ar1-Ar24) were added to the plates in a fresh medium and again incubated for 24 h in a CO2 (5%) incubator at 37°C. Next, MTT (1 mg/mL) was added to the wells, followed by incubation for 4–5 h. The formazan crystals were solubilized using a solubilizing solution (40% (v/v) dimethyl formamide in 2% (v/v) glacial acetic acid added with 16% sodium dodecyl sulfate), and the absorbance (OD570nm) was measured. Considering the lack of effect of EPIs on eukaryotic Ca^2+ ion channels, we further evaluated cytotoxicity on Human Peripheral Blood Mononuclear cells (H-PBMC). […] Our front runners, Ar1, Ar5, and Ar11, had extremely low toxicity toward H-PBMCs. […] Taken together, these experiments provide substantial evidence that Ar5 is non-toxic in vitro and can be used for therapeutic applications in vivo.

in vitro [5] = assay: in vitro; set-up: MTT viability assay on human PBMCs, absorbance at 570 nm; settings: human, pbmc; 24 h exposure, MTT; read-out: IC50
Description: as §2

- MIC [1]: 256 µg/mL
- MIC [2]: 256 µg/mL
- MIC [3]: 128 µg/mL
SMILES: O=C(O)c1cn(C2CC2)c2cc(N3CCNCC3)c(F)cc2c1=O [Ciprofloxacin]

SMILES: CN(C)c1cc(NC(=O)CNC(C)(C)C)c(O)c2c1C[C@H]1C[C@H]3[C@H](N(C)C)C(O)=C(C(N)=O)C(=O)[C@@]3(O)C(O)=C1C2=O [Tigecycline]
- MIC [1]: 256 µg/mL
- MIC [2]: 128 µg/mL
- MIC [3]: 64 µg/mL

SMILES: CCOC(=O)c1cc(-c2ccc(F)cc2)c[nH]1 [Ar17]
- CC50 at 24 h (in vitro [4]): 256 µg/mL (≈ 1100 µM)
- CC50 at 24 h (in vitro [5]): 256 µg/mL (≈ 1100 µM)

SMILES: C[C@H]1COc2c(N3CCN(C)CC3)c(F)cc3c(=O)c(C(=O)O)cn1c23 [Levofloxacin]
- MIC [1]: 256 µg/mL
- MIC [2]: 32 µg/mL
- MIC [3]: 32 µg/mL

SMILES: CCOC(=O)c1cc(-c2ccc(C(F)(F)F)cc2)cn1Cc1ccc(C)cc1 [Ar24]
- CC50 at 24 h (in vitro [4]): 256 µg/mL (≈ 661 µM)
- CC50 at 24 h (in vitro [5]): 256 µg/mL (≈ 661 µM)

SMILES: CCOC(=O)c1cc(-c2ccc(F)cc2F)cn1Cc1ccc(F)cc1 [Ar18]
- CC50 at 24 h (in vitro [4]): > 128 µg/mL
- CC50 at 24 h (in vitro [5]): > 128 µg/mL

SMILES: O=C(N[C@H](CO)[C@H](O)c1ccc([N+](=O)[O-])cc1)C(Cl)Cl [Chloramphenicol]
- MIC [1]: 256 µg/mL
- MIC [2]: 32 µg/mL
- MIC [3]: 16 µg/mL

SMILES: CC[C@H]1OC(=O)[C@H](C)[C@@H](O[C@H]2C[C@@](C)(OC)[C@@H](O)[C@H](C)O2)[C@H](C)[C@@H](O[C@@H]2O[C@H](C)C[C@H](N(C)C)[C@H]2O)[C@](C)(O)C[C@@H](C)C(=O)[C@H](C)[C@@H](O)[C@]1(C)O [Erythromycin]
- MIC [1]: 512 µg/mL
- MIC [2]: 512 µg/mL
- MIC [3]: 128 µg/mL

SMILES: CCOC(=O)c1cc(-c2ccc(C(F)(F)F)cc2)cn1Cc1ccc(F)cc1 [Ar16]
- CC50 at 24 h (in vitro [4]): 256 µg/mL (≈ 654 µM)
- CC50 at 24 h (in vitro [5]): 256 µg/mL (≈ 654 µM)

SMILES: CN(C)[C@@H]1C(O)=C(C(N)=O)C(=O)[C@@]2(O)C(O)=C3C(=O)c4c(O)cccc4[C@@](C)(O)[C@H]3C[C@@H]12 [Tetracycline]
- MIC [1]: 32 µg/mL
- MIC [2]: 256 µg/mL
- MIC [3]: 4 µg/mL

SMILES: COC(=O)c1cc(-c2cccc(NC(C)=O)c2)cn1Cc1ccc(C)cc1 [Ar11]
- CC50 at 24 h (in vitro [4]): > 256 µg/mL
- CC50 at 24 h (in vitro [5]): > 256 µg/mL

SMILES: CCN1CCN(C(=O)N[C@@H](C(=O)N[C@@H]2C(=O)N3[C@@H]2SC(C)(C)[C@@H]3C(=O)O)c2ccccc2)C(=O)C1=O [Piperacillin]
- MIC [1]: 256 µg/mL
- MIC [2]: 512 µg/mL
- MIC [3]: 1020 µg/mL

SMILES: CCOC(=O)c1cc(-c2ccc(F)cn2)cn1Cc1ccc(F)cc1 [Ar19]
- CC50 at 24 h (in vitro [4]): > 128 µg/mL
- CC50 at 24 h (in vitro [5]): > 128 µg/mL

SMILES: CCOC(=O)c1cc(-c2ccc(C#N)cc2)cn1Cc1ccc(F)cc1 [Ar21]
- CC50 at 24 h (in vitro [4]): 256 µg/mL (≈ 735 µM)
- CC50 at 24 h (in vitro [5]): 256 µg/mL (≈ 735 µM)

SMILES: COC(=O)c1cc(-c2ccc(F)cc2)cn1Cc1ccc(F)cc1 [Ar1]
- CC50 at 24 h (in vitro [4]): 256 µg/mL (≈ 782 µM)
- CC50 at 24 h (in vitro [5]): 256 µg/mL (≈ 782 µM)

SMILES: CCOC(=O)c1cc(-c2cccc(CO)c2)cn1Cc1ccc(F)cc1 [Ar20]
- CC50 at 24 h (in vitro [4]): > 128 µg/mL
- CC50 at 24 h (in vitro [5]): > 128 µg/mL
